Measured values: patent US20050069498A1, “Method for identifying metabotropic glutamate receptor agonists and potentiators” (priority 2003, published 2005)

System: VHipp norepinephrine (NE) release
Experiment: Ketamine challenge: norepinephrine release in ventral hippocampus by in vivo microdialysis
Conditions: three ketamine doses vs vehicle control, 20 min intervals over 120 min, time course and AUC (FIG. 2, 3)

SMILES: CNC1(c2ccccc2Cl)CCCCC1=O (centres unmarked) [Ketamine]
- VHipp norepinephrine (NE) release after ketamine challenge: dose dependent increase
- VHipp norepinephrine (NE) release after ketamine challenge (listed as ketamine): greater area under the curve
